Where “and” joins values, the source holds several entries; their conditions need not be identical. Equal entries are not always repeated.
Columns and labels:
BRAF = biological target: T1, BRAF (Homo sapiens, UniProt P15056); test: DiscoverX KINOMEscan competition binding assay; conditions: 10 µM; Table 3; read-out: % ctrl. activity at 10 µM, BRAF (DiscoverX), printed as symbol
T1 construct: purchased DiscoverX (KINOMEscan service); host or cells: E. coli BL21-derived host (T7 phage) or HEK-293
In short: (§1)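 Kinase binding measured by competition of test compound (10 µM) with an immobilized biotinylated ligand on streptavidin beads, 1 h at room temperature. Kinases were T7 phage-tagged or HEK-293-expressed and DNA-tagged. Bound kinase was eluted and quantified by qPCR; values are % of control, lower meaning stronger binding.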

EGFR = biological target: T2, EGFR (Homo sapiens, UniProt P00533); test: DiscoverX KINOMEscan competition binding assay; conditions: compound 10 µM; lower values = higher affinity; below 35% = significant binding
T2 construct: purchased DiscoverX (KINOMEscan service); host or cells: E. coli BL21-derived host (T7 phage) or HEK-293
In short: as §1

ErbB2 = biological target: T3, ErbB2 (Homo sapiens, UniProt P04626); test: DiscoverX KINOMEscan competition binding assay; conditions: compound 10 µM; lower values = higher affinity; below 35% = significant binding
T3 construct: purchased DiscoverX (KINOMEscan service); host or cells: E. coli BL21-derived host (T7 phage) or HEK-293
In short: as §1

VEGFR2 = biological target: T4, VEGFR2 (Homo sapiens, UniProt P35968); test: DiscoverX KINOMEscan competition binding assay; conditions: compound 10 µM; lower values = higher affinity; below 35% = significant binding
T4 construct: purchased DiscoverX (KINOMEscan service); host or cells: E. coli BL21-derived host (T7 phage) or HEK-293
T4 sequence (P35968 20-1356): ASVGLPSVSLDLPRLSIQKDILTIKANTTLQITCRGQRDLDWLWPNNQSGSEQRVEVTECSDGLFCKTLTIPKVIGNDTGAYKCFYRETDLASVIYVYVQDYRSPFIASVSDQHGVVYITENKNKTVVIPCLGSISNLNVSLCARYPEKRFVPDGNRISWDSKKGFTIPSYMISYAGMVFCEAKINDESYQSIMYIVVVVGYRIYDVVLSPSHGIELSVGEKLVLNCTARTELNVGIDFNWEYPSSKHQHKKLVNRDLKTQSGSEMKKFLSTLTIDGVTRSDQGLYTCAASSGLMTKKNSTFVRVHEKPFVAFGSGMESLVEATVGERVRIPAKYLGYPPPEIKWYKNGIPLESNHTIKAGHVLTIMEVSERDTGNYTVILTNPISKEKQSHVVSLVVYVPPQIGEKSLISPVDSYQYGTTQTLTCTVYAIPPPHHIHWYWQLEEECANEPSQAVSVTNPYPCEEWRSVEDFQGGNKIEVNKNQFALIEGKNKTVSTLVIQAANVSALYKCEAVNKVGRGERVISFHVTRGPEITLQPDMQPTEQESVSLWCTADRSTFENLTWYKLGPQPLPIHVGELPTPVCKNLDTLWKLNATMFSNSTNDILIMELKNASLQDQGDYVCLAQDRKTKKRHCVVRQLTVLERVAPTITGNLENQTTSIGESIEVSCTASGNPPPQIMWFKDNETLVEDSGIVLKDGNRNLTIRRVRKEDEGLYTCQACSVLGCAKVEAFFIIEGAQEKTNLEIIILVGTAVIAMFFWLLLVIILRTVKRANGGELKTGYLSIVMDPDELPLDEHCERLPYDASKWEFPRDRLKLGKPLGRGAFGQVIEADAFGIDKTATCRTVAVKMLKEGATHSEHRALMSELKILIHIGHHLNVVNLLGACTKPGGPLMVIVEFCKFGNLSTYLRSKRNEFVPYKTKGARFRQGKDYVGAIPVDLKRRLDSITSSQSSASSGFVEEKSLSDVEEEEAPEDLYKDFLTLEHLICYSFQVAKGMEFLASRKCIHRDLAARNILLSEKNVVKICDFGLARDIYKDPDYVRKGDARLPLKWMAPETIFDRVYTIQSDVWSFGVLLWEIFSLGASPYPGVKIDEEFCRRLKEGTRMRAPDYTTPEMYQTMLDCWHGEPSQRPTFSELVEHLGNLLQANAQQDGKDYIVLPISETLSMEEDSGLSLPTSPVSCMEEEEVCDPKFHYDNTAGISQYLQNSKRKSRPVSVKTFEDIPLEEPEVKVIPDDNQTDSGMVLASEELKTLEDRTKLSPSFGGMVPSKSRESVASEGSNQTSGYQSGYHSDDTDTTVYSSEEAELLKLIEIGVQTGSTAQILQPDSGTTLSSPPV
In short: as §1

EGFR-L858R = biological target: T5, EGFR-L858R (Homo sapiens, UniProt P00533, L858R); test: HTRF KinEASE-TK IC50 determination (Rauh Lab); format: biochemical; conditions: ATP at Km (9 µM); read-out: IC50, EGFR L858R mutant
T5 construct: purchased Carna Biosciences lot13CBS-0537B
T5 sequence (P00533 25-1210 L858R): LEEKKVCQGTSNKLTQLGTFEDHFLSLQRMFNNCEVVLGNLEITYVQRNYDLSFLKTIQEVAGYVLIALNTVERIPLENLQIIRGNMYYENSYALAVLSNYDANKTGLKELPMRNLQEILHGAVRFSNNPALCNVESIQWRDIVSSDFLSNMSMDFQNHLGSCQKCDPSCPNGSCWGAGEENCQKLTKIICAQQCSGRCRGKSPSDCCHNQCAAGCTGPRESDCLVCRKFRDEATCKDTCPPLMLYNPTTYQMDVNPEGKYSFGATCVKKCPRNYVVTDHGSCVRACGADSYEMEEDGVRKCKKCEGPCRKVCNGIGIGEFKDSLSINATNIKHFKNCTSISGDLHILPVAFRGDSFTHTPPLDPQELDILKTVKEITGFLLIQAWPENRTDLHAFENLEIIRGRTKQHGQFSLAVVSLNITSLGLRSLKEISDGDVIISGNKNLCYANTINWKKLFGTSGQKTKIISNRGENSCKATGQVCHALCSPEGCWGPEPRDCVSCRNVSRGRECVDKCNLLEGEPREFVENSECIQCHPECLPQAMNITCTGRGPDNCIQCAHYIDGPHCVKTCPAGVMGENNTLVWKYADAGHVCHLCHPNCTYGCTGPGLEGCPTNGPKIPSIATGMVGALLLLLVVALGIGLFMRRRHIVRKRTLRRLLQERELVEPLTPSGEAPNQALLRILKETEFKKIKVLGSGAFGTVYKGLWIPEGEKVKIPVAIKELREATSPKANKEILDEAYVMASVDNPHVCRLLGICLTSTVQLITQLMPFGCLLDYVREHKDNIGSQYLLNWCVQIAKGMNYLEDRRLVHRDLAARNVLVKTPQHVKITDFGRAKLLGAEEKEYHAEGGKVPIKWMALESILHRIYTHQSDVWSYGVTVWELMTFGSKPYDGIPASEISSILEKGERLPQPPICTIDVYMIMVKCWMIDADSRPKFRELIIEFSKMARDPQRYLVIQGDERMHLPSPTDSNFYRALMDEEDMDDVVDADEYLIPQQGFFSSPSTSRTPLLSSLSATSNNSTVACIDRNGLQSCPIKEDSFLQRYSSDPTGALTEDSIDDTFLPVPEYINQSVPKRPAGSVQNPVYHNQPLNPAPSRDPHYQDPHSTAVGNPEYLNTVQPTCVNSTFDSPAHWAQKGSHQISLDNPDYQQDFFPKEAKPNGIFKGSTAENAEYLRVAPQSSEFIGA
Protocol: (§2) IC 50 determinations for EGFR, its mutants and ErbB2-insYVMA (Carna Biosciences, lot13CBS-0005K for EGFR-wt; Carna, lot13CBS-0537B for EGFR-L858R; Carna, lot12CBS-0765B for EGFR-L858R/T790M; and ProQinase, lot1525-0000-1/003 for ErbB2-insYVMA) were performed with the HTRF KinEASE-TK assay from Cisbio according to the manufacturer’s instructions. Briefly, the amount of kinase in each reaction well was set to 0.60 ng EGFR-wt (0.67 nM), 0.10 ng EGFR-L858R (0.11 nM), 0.07 ng EGFR-T790M/L858R (0.08 nM), or 0.01 ng ErbB2-insYVMA (0.01 nM). An artificial substrate peptide (TK-substrate from Cisbio) was phosphorylated by EGFR or ErbB2. After completion of the reaction (reaction times: 25 min for EGFR-wt, 15 min for L858R, 20 min for L858R/T790M, and 40 min for ErbB2-insYVMA), the reaction was stopped by addition of buffer containing EDTA as well as an anti-phosphotyrosine antibody labeled with europium cryptate and streptavidin labeled with the fluorophore XL665. FRET between europium cryptate and XL665 was measured after an additional hour of incubation to quantify the phosphorylation of the substrate peptide. […] Kinase and inhibitor were preincubated for 30 min before the reaction was started by addition of ATP and substrate peptide. An EnVision multimode plate reader (Perkin Elmer) was used to measure the fluorescence of the samples at 620 nm (Eu ^3+ -labeled antibody) and 665 nm (XL665-labeled streptavidin) 50 µs after excitation at 320 nm. The quotient of both intensities for reactions made with eight different inhibitor concentrations was then analyzed using the Quattro Software Suite for IC 50 -determination. Each reaction was performed in duplicate, and at least three independent determinations of each IC 50 were made.

EGFR-L858R/T790M = biological target: T6, EGFR-L858R/T790M (Homo sapiens, UniProt P00533, L858R/T790M); test: HTRF KinEASE-TK IC50 determination (Rauh Lab); format: biochemical; conditions: ATP at Km (4 µM); read-out: IC50, EGFR L858R/T790M double mutant
T6 construct: purchased Carna Biosciences lot12CBS-0765B
T6 sequence (P00533 25-1210 T790M/L858R): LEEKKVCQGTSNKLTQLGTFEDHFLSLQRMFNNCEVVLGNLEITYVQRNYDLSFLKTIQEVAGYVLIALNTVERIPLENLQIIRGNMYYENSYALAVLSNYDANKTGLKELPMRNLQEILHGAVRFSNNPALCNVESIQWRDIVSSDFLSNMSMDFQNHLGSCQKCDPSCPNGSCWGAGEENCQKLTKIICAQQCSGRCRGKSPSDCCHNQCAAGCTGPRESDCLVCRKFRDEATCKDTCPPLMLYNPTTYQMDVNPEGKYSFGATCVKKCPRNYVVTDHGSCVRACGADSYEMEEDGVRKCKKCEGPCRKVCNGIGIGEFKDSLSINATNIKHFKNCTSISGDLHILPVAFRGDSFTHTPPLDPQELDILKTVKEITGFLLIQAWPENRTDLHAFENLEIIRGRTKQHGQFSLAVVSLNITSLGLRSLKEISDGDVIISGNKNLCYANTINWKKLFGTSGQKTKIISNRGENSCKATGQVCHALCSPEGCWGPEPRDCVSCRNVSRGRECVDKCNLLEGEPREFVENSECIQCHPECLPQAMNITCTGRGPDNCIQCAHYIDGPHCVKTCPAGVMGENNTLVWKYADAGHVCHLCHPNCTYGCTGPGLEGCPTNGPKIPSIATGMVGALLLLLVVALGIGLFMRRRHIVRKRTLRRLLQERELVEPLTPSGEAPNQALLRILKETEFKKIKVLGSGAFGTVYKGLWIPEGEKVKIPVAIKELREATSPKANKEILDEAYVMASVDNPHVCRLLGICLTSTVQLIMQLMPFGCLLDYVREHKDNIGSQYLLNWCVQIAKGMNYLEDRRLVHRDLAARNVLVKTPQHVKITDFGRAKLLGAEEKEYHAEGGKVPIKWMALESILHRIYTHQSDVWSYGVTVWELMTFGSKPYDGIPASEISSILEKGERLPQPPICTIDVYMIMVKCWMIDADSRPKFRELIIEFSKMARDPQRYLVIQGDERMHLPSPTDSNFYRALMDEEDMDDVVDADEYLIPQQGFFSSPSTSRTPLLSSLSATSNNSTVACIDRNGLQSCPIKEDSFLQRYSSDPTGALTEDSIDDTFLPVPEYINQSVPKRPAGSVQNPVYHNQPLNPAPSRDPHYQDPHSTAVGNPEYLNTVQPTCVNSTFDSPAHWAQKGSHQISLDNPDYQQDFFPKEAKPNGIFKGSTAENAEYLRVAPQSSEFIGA
Protocol: as §2

EGFR-wt = biological target: T7, EGFR-wt (Homo sapiens, UniProt P00533); test: HTRF KinEASE-TK IC50 determination (Rauh Lab); format: biochemical; conditions: ATP at Km (9.5 µM), racemate tested, read-out: IC50 ± s.d., EGFR
T7 construct: purchased Carna Biosciences lot13CBS-0005K
Protocol: as §2

ErbB2-insYVMA = biological target: T8, ErbB2-insYVMA (Homo sapiens, UniProt P04626, INS775YVMA); test: HTRF KinEASE-TK IC50 determination (Rauh Lab); format: biochemical; conditions: ATP at Km (6 µM); racemate tested; read-out: IC50 ± s.d., ErbB2insYVMA
T8 construct: purchased ProQinase lot1525-0000-1/003
T8 sequence (P04626 with tags, fused parts or gaps INS775YVMA limits assumed): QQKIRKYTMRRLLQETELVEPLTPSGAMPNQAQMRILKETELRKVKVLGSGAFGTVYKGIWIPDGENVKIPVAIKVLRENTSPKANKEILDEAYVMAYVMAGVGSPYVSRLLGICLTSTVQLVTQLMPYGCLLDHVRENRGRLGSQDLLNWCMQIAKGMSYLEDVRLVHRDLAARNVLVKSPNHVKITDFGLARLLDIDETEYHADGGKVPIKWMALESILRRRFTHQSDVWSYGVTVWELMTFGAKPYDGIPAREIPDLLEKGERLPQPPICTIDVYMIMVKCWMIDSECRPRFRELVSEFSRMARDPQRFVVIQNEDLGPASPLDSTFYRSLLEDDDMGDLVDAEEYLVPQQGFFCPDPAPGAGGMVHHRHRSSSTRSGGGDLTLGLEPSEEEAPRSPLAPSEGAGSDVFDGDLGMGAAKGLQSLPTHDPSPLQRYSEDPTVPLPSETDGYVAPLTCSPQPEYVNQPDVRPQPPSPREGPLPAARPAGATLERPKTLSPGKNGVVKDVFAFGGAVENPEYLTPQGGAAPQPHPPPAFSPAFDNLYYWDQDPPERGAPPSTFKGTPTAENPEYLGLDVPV
Protocol: as §2

T1 sequence (P15056 whole entry): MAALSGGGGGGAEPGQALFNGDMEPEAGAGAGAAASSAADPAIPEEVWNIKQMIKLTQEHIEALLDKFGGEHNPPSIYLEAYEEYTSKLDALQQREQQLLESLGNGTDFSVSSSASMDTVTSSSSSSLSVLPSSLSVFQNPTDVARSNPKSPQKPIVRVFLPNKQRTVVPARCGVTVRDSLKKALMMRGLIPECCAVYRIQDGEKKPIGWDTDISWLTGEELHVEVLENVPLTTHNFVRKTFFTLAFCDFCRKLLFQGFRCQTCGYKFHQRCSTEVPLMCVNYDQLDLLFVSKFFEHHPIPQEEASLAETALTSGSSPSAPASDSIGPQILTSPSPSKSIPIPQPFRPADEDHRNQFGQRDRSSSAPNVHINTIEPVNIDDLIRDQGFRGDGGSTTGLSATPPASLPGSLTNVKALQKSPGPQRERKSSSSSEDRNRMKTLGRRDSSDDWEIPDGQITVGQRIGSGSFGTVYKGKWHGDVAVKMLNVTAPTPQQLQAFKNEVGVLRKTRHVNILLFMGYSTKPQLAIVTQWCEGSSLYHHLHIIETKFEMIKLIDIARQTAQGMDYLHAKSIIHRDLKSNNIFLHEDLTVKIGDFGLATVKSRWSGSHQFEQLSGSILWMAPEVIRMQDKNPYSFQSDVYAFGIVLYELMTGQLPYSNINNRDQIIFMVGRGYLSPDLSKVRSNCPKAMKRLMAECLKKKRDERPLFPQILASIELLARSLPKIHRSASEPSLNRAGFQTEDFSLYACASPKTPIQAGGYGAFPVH

remaining binding at 10 µM (BRAF): ≥ 99%
% control, EGFR (DiscoverX) (EGFR): 17 % control
% control, ErbB2 (DiscoverX) (ErbB2): 21 % control
% control, VEGFR2 (DiscoverX) (VEGFR2): 99 % control
IC50 (EGFR-L858R): 2350 ± 397 nM
IC50 (EGFR-L858R/T790M): > 10 µM
IC50 (EGFR-wt): 324 ± 50 nM
IC50 (ErbB2-insYVMA): < 324 nM and 220 nM
Compound: COC(=O)Cc1ccc(Oc2ncnc3sc4c(c23)CC[C@@H](C)C4)cc1 (racemic) [DS39984]

Reference: publication PMC7865522, “Analyzing Kinase Similarity in Small Molecule and Protein Structural Space to Explore the Limits of Multi-Target Screening” (Molecules, 2021)
